Test: xn = mol fraction of the nth substance listed
Settings: 100 kPa, Liquid; for speed of sound: Frequency=3 MHz, Sing-around technique in a fixed-path interferometer; for mass density: Vibrating tube method

OCCCO [propan-1,3-diol] + CCO
Settings | mass density, 283.15 K [kg/m3] | mass density, 293.15 K [kg/m3] | mass density, 303.15 K [kg/m3] | mass density, 313.15 K [kg/m3] | speed of sound, 283.15 K [m/s] | speed of sound, 293.15 K [m/s] | speed of sound, 303.15 K [m/s] | speed of sound, 313.15 K [m/s]
x2 = 0 | 1058.85 | 1052.61 | 1046.36 | 1040.07 | 1659.5 | 1636.3 | 1613.6 | 1591.1
x2 = 0.05 | 1049.7 | 1043.39 | 1037.07 | 1030.71 | 1642.4 | 1618.9 | 1595.7 | 1572.9
x2 = 0.1 | 1040.25 | 1033.87 | 1027.48 | 1021.03 | 1623.9 | 1600.1 | 1576.5 | 1553.2
x2 = 0.15 | 1030.34 | 1023.87 | 1017.39 | 1010.85 | 1605.2 | 1580.9 | 1556.8 | 1533.1
x2 = 0.2 | 1020.03 | 1013.44 | 1006.78 | 999.86 | 1585.7 | 1560.9 | 1536.5 | 1511
x2 = 0.2499 | 1009.63 | 1003 | 996.35 | 989.64 | 1565.3 | 1540.2 | 1515.3 | 1490.6
x2 = 0.3004 | 998.62 | 991.91 | 985.17 | 978.36 | 1544.3 | 1518.7 | 1493.3 | 1468.1
x2 = 0.3502 | 987.34 | 980.54 | 973.69 | 966.78 | 1523 | 1496.8 | 1470.9 | 1445.3
x2 = 0.4 | 975.76 | 968.84 | 961.9 | 954.88 | 1501 | 1474.2 | 1447.8 | 1421.7
x2 = 0.4501 | 963.57 | 956.56 | 949.5 | 942.36 | 1478.2 | 1450.8 | 1423.8 | 1397.1
x2 = 0.5004 | 950.95 | 943.82 | 936.66 | 929.42 | 1454.4 | 1426.5 | 1399 | 1371.7
x2 = 0.5501 | 938.39 | 931.16 | 923.88 | 916.52 | 1431.2 | 1402.8 | 1374.6 | 1346.8
x2 = 0.6001 | 924.91 | 917.56 | 910.16 | 902.67 | 1406.4 | 1377.6 | 1348.8 | 1320.4
x2 = 0.65 | 911.17 | 903.69 | 896.16 | 888.54 | 1382.1 | 1352.5 | 1323.2 | 1294.2
x2 = 0.7 | 896.69 | 889.09 | 881.42 | 873.66 | 1356.6 | 1326.3 | 1296.4 | 1266.8
x2 = 0.7503 | 881.71 | 873.96 | 866.15 | 858.23 | 1331.1 | 1300.1 | 1269.4 | 1239.1
x2 = 0.8001 | 866.31 | 858.42 | 850.47 | 842.41 | 1304.9 | 1273.3 | 1242 | 1211.1
x2 = 0.8502 | 850.07 | 842.04 | 833.92 | 825.7 | 1278.5 | 1246.2 | 1214.2 | 1182.7
x2 = 0.9 | 833.71 | 825.51 | 817.24 | 808.85 | 1252.1 | 1219 | 1186.3 | 1154
x2 = 0.95 | 816.56 | 808.22 | 799.79 | 791.23 | 1225.1 | 1191.3 | 1157.9 | 1125

OCCCO [propan-1,3-diol] + CO
Settings | mass density, 283.15 K [kg/m3] | mass density, 293.15 K [kg/m3] | mass density, 303.15 K [kg/m3] | mass density, 313.15 K [kg/m3] | speed of sound, 283.15 K [m/s] | speed of sound, 293.15 K [m/s] | speed of sound, 303.15 K [m/s] | speed of sound, 313.15 K [m/s]
x2 = 0 | 1058.85 | 1052.61 | 1046.36 | 1040.07 | 1659.5 | 1636.3 | 1613.6 | 1591.1
x2 = 0.05 | 1052.58 | 1046.29 | 1039.98 | 1033.62 | 1645.8 | 1622.5 | 1599.5 | 1576.8
x2 = 0.0996 | 1045.92 | 1039.56 | 1033.18 | 1026.76 | 1629.2 | 1605.8 | 1582.6 | 1559.7
x2 = 0.1503 | 1038.75 | 1032.32 | 1025.88 | 1019.37 | 1613.8 | 1590.1 | 1566.8 | 1543.7
x2 = 0.2 | 1031.38 | 1024.87 | 1018.34 | 1011.73 | 1596.8 | 1572.8 | 1549.2 | 1525.8
x2 = 0.2502 | 1023.44 | 1016.87 | 1010.26 | 1003.55 | 1578.8 | 1554.7 | 1530.8 | 1507.1
x2 = 0.2998 | 1015.08 | 1008.41 | 1001.72 | 994.98 | 1560.7 | 1536.1 | 1511.9 | 1487.9
x2 = 0.3491 | 1006.18 | 999.42 | 992.64 | 985.81 | 1540.2 | 1515.4 | 1490.9 | 1466.6
x2 = 0.3998 | 996.52 | 989.65 | 982.76 | 975.82 | 1519.5 | 1494.2 | 1469.3 | 1444.7
x2 = 0.4497 | 986.31 | 979.34 | 972.34 | 965.29 | 1497 | 1471.6 | 1446.3 | 1421.4
x2 = 0.5 | 975.38 | 968.29 | 961.17 | 953.99 | 1474 | 1448 | 1422.3 | 1397
x2 = 0.5501 | 963.77 | 956.54 | 949.29 | 941.97 | 1450.2 | 1423.8 | 1397.7 | 1371.9
x2 = 0.5994 | 951.07 | 943.69 | 936.28 | 928.82 | 1423.3 | 1396.4 | 1369.7 | 1343.4
x2 = 0.6501 | 936.86 | 929.32 | 921.74 | 914.15 | 1394.9 | 1367.3 | 1340.1 | 1313.3
x2 = 0.6998 | 922.43 | 914.7 | 906.94 | 899.12 | 1366.9 | 1338.6 | 1310.7 | 1283.3
x2 = 0.7499 | 906.27 | 898.33 | 890.37 | 882.34 | 1336 | 1307.1 | 1278.5 | 1250.5
x2 = 0.8 | 889.44 | 881.29 | 873.11 | 864.86 | 1305 | 1275.3 | 1246.1 | 1217.4
x2 = 0.8501 | 869.9 | 861.5 | 853.06 | 844.55 | 1269.1 | 1238.8 | 1208.7 | 1179.2
x2 = 0.9 | 849.27 | 840.58 | 831.86 | 823.05 | 1233.7 | 1202.3 | 1171.3 | 1140.9
x2 = 0.9501 | 826.76 | 817.77 | 808.72 | 799.59 | 1196 | 1164 | 1132.1 | 1100.8

OCCCO [propan-1,3-diol] + O
Settings | mass density, 283.15 K [kg/m3] | mass density, 293.15 K [kg/m3] | mass density, 303.15 K [kg/m3] | mass density, 313.15 K [kg/m3] | speed of sound, 283.15 K [m/s] | speed of sound, 293.15 K [m/s] | speed of sound, 303.15 K [m/s] | speed of sound, 313.15 K [m/s]
x2 = 0 | 1058.85 | 1052.61 | 1046.36 | 1040.07 | 1659.5 | 1636.3 | 1613.6 | 1591.1
x2 = 0.1022 | 1059.27 | 1053.04 | 1046.79 | 1040.48 | 1672.9 | 1650.1 | 1627.2 | 1605
x2 = 0.201 | 1059.47 | 1053.26 | 1047.01 | 1040.68 | 1686.6 | 1664 | 1641.4 | 1618.9
x2 = 0.2987 | 1059.49 | 1053.3 | 1047.05 | 1040.7 | 1702 | 1679.4 | 1656.8 | 1634.1
x2 = 0.3998 | 1059.07 | 1052.91 | 1046.67 | 1040.3 | 1717.3 | 1695.2 | 1672.8 | 1650.2
x2 = 0.4997 | 1057.91 | 1051.82 | 1045.61 | 1039.25 | 1732 | 1710.5 | 1688.7 | 1666.4
x2 = 0.5997 | 1055.48 | 1049.54 | 1043.42 | 1037.1 | 1742.7 | 1722.7 | 1701.9 | 1680.5
x2 = 0.6999 | 1050.47 | 1044.85 | 1039.01 | 1032.92 | 1742 | 1725.1 | 1707.1 | 1688.1
x2 = 0.7999 | 1041.86 | 1036.89 | 1031.59 | 1025.94 | 1718.2 | 1707.4 | 1695 | 1680.9
x2 = 0.8997 | 1025.27 | 1021.75 | 1017.64 | 1012.95 | 1637.8 | 1641.2 | 1641.6 | 1639
